Source: patent publication US11590116B2 (THERAVANCE BIOPHARMA R&D IP, LLC, priority 2019, dated 2023)

Experiments:
[1] = molecular target: T1, recombinant human ALK5 (TGF-βR1) protein (Homo sapiens, UniProt P36897); assay: Biochemical ALK5 (TGF-βR1) assay to measure pKi (LANCE Ultra ULight kinase assay); settings: apparent pKi from pIC50 by Cheng-Prusoff, read-out: ALK5 pKi (converted)
T1 construct: purchased Life Technologies PR9075A
T1 sequence (P36897 34-503): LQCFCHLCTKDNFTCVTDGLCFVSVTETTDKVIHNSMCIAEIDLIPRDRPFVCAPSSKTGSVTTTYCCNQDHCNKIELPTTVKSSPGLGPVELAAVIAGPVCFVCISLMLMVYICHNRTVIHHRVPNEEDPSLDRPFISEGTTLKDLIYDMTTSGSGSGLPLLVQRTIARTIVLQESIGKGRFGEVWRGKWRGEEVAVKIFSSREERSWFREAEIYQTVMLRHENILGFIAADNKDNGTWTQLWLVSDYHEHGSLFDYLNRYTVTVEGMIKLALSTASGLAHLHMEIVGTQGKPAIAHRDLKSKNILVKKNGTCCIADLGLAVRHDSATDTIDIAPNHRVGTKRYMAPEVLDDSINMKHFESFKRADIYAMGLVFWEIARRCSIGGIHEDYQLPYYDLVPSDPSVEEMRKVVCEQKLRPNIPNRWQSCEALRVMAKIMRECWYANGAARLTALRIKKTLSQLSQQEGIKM
How it was run: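 Compounds (10 μM to 25 pM) preincubated 60 minutes at room temperature with enzyme, then reaction run 60 minutes at 37° C with ATP added as 125 μM (5× final). Stopped with EDTA plus Eu-anti-phospho-Topoisomerase 2-alpha (Thr1342) antibody, TR-FRET read at 665 nm; pIC50 converted to pKi via Cheng-Prusoff.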

[2] = tested on: TGF-β-stimulated SMAD3 phosphorylation in BEAS-2B cells; assay: Cellular ALK5 potency assay, inhibition of TGF-β stimulated pSMAD3 formation in BEAS-2B cells; format: cell-based; settings: Homo sapiens; inhibition of TGF-β stimulated pSMAD3 formation, BEAS-2B cells; read-out: BEAS2B pIC50 (converted)
How it was run: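 Cells seeded overnight; rinse with supplemented HBSS; compound 1 h at 37 °C; TGF-β 10 ng/mL final, 30 min; lyse; AlphaLISA acceptor and detector beads 2 h apart, read next day. Potency expressed as pIC50.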

Row | Ki [1] | SMILES | IC50 [2]
1 | 0.0398 to 0.316 nM | Cc1nc(-c2[nH]cnc2-c2ccc3ncc(-c4cnn(C5CCCNC5)c4)cc3n2)ccc1F (centres unmarked) [Compound 413, 2-[5-(5-fluoro-6-methyl-2-pyridyl)-1H-imidazol-4-yl]-7-[1-(3-piperidyl)pyrazol-4-yl]-1,5-naphthyridine] | 25.1 to 158 nM
2 | 0.0398 to 0.316 nM | Cc1cccc(-c2[nH]cnc2-c2ccc3ncc(-c4cn5c(n4)CNCC5)cc3n2)n1 [Compound 414, 2-(5-(6-methylpyridin-2-yl)-1H-imidazol-4-yl)-7-(5,6,7,8-tetrahydroimidazo[1,2-a]pyrazin-2-yl)-1,5-naphthyridine] | 25.1 to 158 nM
3 | 0.0398 to 0.316 nM | Cc1cccc(-c2nc3ccccn3c2-c2ccc3ncc(-c4nc5n(n4)CCNC5)cc3n2)n1 [Compound 415, 2-[2-(6-methyl-2-pyridyl)imidazo[1,2-a]pyridin-3-yl]-7-(5,6,7,8-tetrahydro-[1,2,4]triazolo[1,5-a]pyrazin-2-yl)-1,5-naphthyridine] | < 20 nM
4 | 0.0398 to 0.316 nM | Cc1cccc(-c2n[nH]cc2-c2ccc3ncc(-c4cncnc4)cc3n2)n1 [Compound 416, 2-[3-(6-methyl-2-pyridyl)-1H-pyrazol-4-yl]-7-pyrimidin-5-yl-1,5-naphthyridine] | < 20 nM
5 | < 0.0316 nM | Cc1cccc(-c2n[nH]cc2-c2ccc3ncc(C4=CCC(NC(C)C)CC4)cc3n2)n1 (centres unmarked) [Compound 417, N-isopropyl-4-[6-[3-(6-methyl-2-pyridyl)-1H-pyrazol-4-yl]-1,5-naphthyridin-3-yl]cyclohex-3-en-1-amine] | 25.1 to 158 nM
6 | 0.0398 to 0.316 nM | Cc1cccc(-c2[nH]cnc2-c2ccc3ncc(C4=CC[C@H](NC(=O)[C@@H]5CCCN5)CC4)cc3c2)n1 [Compound 418, (2S)—N-[(1R)-4-[6-[5-(6-methyl-2-pyridyl)-1H-imidazol-4-yl]-3-quinolyl]cyclohex-3-en-1-yl]pyrrolidine-2-carboxamide] | 25.1 to 158 nM
7 | 0.0398 to 0.316 nM | Cc1cccc(-c2[nH]ncc2-c2ccc3ncc(C(=O)OCC4CNC4)cc3n2)n1 [Compound 419, azetidin-3-ylmethyl 6-[5-(6-methyl-2-pyridyl)-1H-pyrazol-4-yl]-1,5-naphthyridine-3-carboxylate] | 25.1 to 158 nM
8 | < 0.0316 nM | COc1ccc(-c2cnc3ccc(-c4c[nH]nc4-c4cccc(C)n4)nc3c2)cn1 [Compound 420, 7-(6-methoxy-3-pyridyl)-2-[3-(6-methyl-2-pyridyl)-1H-pyrazol-4-yl]-1,5-naphthyridine] | < 20 nM
9 | 0.398 to 3.16 nM | Cc1cccc(-c2[nH]ncc2-c2ccc3ncc(C(=O)O[C@@H]4CCN(C)C4)cc3n2)n1 [Compound 421, [(3R)-1-methylpyrrolidin-3-yl] 6-[5-(6-methyl-2-pyridyl)-1H-pyrazol-4-yl]-1,5-naphthyridine-3-carboxylate] | 25.1 to 158 nM
10 | < 0.0316 nM | Cc1nc(-c2n[nH]cc2-c2ccc3ncc(-c4cn5c(n4)CNCC5)cc3n2)ccc1F [Compound 422, 2-[3-(5-fluoro-6-methyl-2-pyridyl)-1H-pyrazol-4-yl]-7-(5,6,7,8-tetrahydroimidazo[1,2-a]pyrazin-2-yl)-1,5-naphthyridine] | 25.1 to 158 nM
11 | < 0.0316 nM | Cc1nc(-c2[nH]cnc2-c2ccc3ncc(-c4cn[nH]c4)cc3c2)ccc1F [Compound 423, 6-[5-(5-fluoro-6-methyl-2-pyridyl)-1H-imidazol-4-yl]-3-(1H-pyrazol-4-yl)quinoline] | < 20 nM
12 | 0.0398 to 0.316 nM | Cc1cccc(-c2[nH]cnc2-c2ccc3ncc(N4CCC(C(=O)OCC5CNC5)CC4)cc3c2)n1 [Compound 424, azetidin-3-ylmethyl 1-[6-[5-(6-methyl-2-pyridyl)-1H-imidazol-4-yl]-3-quinolyl]piperidine-4-carboxylate] | 200 to 1260 nM
13 | 0.0398 to 0.316 nM | Cc1nc(-c2n[nH]cc2-c2ccc3ncc(-c4nc5c([nH]4)CNCC5)cc3n2)ccc1F [Compound 425, 2-[3-(5-fluoro-6-methyl-2-pyridyl)-1H-pyrazol-4-yl]-7-(4,5,6,7-tetrahydro-3H-imidazo[4,5-c]pyridin-2-yl)-1,5-naphthyridine] | 200 to 1260 nM
